# Biological target: T1, Mer (Homo sapiens, UniProt Q12866)
# T1 construct: purchased Life Technologies
# T1 sequence (Q12866 21-999): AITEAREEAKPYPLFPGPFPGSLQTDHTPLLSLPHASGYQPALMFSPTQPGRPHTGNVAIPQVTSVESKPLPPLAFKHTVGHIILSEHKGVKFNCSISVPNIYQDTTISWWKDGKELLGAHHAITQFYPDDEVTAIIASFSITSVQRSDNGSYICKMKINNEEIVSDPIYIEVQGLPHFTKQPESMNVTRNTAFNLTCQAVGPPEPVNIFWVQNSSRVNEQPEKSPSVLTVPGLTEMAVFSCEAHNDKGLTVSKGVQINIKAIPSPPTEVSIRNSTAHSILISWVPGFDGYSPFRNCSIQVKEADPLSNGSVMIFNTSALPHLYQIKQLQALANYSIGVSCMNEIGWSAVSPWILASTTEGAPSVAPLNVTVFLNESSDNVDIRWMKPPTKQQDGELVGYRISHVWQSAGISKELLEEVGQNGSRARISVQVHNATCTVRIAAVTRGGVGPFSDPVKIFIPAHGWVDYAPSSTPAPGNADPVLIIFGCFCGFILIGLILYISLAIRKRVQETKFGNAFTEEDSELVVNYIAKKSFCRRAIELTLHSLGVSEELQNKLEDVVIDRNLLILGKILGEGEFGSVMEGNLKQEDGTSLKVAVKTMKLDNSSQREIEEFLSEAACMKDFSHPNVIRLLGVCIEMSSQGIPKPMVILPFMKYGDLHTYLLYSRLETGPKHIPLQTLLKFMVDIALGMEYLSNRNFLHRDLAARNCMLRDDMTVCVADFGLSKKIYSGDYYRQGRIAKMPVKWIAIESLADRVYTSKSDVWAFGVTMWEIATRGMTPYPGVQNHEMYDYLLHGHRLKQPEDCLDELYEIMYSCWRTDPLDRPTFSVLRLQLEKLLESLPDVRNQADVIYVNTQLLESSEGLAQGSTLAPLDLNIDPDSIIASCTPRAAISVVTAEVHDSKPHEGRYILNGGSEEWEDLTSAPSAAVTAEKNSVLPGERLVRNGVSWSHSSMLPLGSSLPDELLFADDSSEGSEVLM
# Experiment: LanthaScreen Eu kinase binding assay for Mer
# Conditions: read-out: Mer kinase binding activity (Kd)
# Summary of the method: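 Competitive displacement of Alexa Fluor 647-labeled Tracer 236 from the kinase, with binding detected by TR-FRET with a Eu-labeled anti-GST antibody. Compounds were run as 8-step DMSO serial dilutions and incubated 1 h at room temperature. Kd was calculated relative to DMSO vehicle control wells.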
row,SMILES,Kd
1,COc1cc2nccc(Oc3ccc(NC(=O)c4sc(C5CC5)cc4OCC(F)(F)F)nc3)c2cc1OC [Compound 179],0.1 to 0.5 µM
2,COc1cc2nccc(Oc3ccc(NC(=O)c4nc(CCC(F)(F)F)oc4CCC4CCC4)nc3)c2cc1OC [Compound 176],0.1 to 0.5 µM
3,COc1cc2nccc(Oc3ccc(NC(=O)c4nn(C5CCC5)cc4OCC(F)(F)F)nc3)c2cc1OC [Compound 24],< 0.1 µM
4,COCCn1cc(OCC(F)(F)F)c(C(=O)Nc2ccc(Oc3ccnc4cc(OC)c(OC)cc34)c(F)c2)n1 [Compound 54],< 0.1 µM
5,COc1cc2nccc(Oc3ccc(NC(=O)c4nn(CCC#N)cc4OCC(F)(F)F)nc3)c2cc1OC [Compound 39],< 0.1 µM
6,CCCn1cc(OCCC(F)(F)F)c(C(=O)Nc2ccc(Oc3ccnc4cc(OC)c(OC)cc34)cn2)n1 [Compound 31],< 0.1 µM
7,COc1cc2nccc(Oc3ccc(NC(=O)c4nn(CC5CCN(C)C5)cc4OCC(F)(F)F)nc3)c2cc1OC (stereo not shown) [Compound 169],< 0.1 µM
8,CCC(=O)n1cc(OCC(F)(F)F)c(C(=O)Nc2ccc(Oc3ccnc4cc(OC)c(OC)cc34)cn2)n1 [Compound 20],< 0.1 µM
9,COc1cc2nccc(Oc3ccc(NC(=O)c4nn(CC(C)N)cc4OCC(F)(F)F)nc3)c2cc1OC (stereo not shown) [Compound 63],< 0.1 µM

# The next lines start with the values.
row,Kd,SMILES
1,< 0.1 µM,COc1cc2nccc(Oc3ccc(NC(=O)c4nn(CC5CCNC5)cc4OCC(F)(F)F)nc3)c2cc1OC (stereo not shown) [Compound 72]
2,< 0.1 µM,COc1cc2nccc(Oc3ccc(NC(=O)c4nn(C[C@H](C)O)cc4OCC(F)(F)F)nc3)c2cc1OC [Compound 30]
3,< 0.1 µM,COc1cc2nccc(Oc3ccc(NC(=O)c4nn(CC(C)O)cc4OCC(F)(F)F)c(F)c3)c2cc1OC (stereo not shown) [Compound 76]
4,< 0.1 µM,COc1cc2nccc(Oc3ccc(NC(=O)c4nn(C5CCOC5)cc4OCC(F)(F)F)cc3F)c2cc1OC (stereo not shown) [Compound 55]
5,< 0.1 µM,COc1cc2nccc(Oc3ccc(NC(=O)c4nn(C5COC5)cc4OCC(F)(F)F)nc3)c2cc1OC [Compound 66]
6,< 0.1 µM,COc1cc2nccc(Oc3ccc(NC(=O)c4nn(CC(C)C)cc4OCC(F)(F)F)c(F)c3)c2cc1OC [Compound 48]
7,< 0.1 µM,COc1cc2nccc(Oc3ccc(NC(=O)c4nn(CCC(F)(F)F)cc4OCC4CCC4)nc3)c2cc1OC [Compound 166]
8,< 0.1 µM,COc1cc2nccc(Oc3ccc(NC(=O)c4nn(C)cc4OCC(F)(F)F)nc3)c2cc1OC [Compound 33]
9,< 0.1 µM,COc1cc2nccc(Oc3ccc(NC(=O)c4nn(CC(C)O)cc4OCC(F)F)nc3)c2cc1OC (stereo not shown) [Compound 175]
10,< 0.1 µM,CCCn1cc(OCCF)c(C(=O)Nc2ccc(Oc3ccnc4cc(OC)c(OC)cc34)cn2)n1 [Compound 14]
